This note sets out measurements from patent US20040152739A1, “Acyclic pyrazole compounds for the inhibition of mitogen activated protein kinase-activated protein kinase-2” (priority 2002, published 2004).

Each structure is given as a SMILES string. Where a name gives a salt, the structure may show the parent alone.

The target of the experiment is MK-2 (Homo sapiens, UniProt P49137). Description: Determination of MK-2 IC50 (anion exchange resin capture assay, HSP-peptide phosphorylation). The class given is biochemical. The settings on record: read-out: MK-2 Avg. IC50.
Chain of MK-2 (P49137 whole entry, species assumed): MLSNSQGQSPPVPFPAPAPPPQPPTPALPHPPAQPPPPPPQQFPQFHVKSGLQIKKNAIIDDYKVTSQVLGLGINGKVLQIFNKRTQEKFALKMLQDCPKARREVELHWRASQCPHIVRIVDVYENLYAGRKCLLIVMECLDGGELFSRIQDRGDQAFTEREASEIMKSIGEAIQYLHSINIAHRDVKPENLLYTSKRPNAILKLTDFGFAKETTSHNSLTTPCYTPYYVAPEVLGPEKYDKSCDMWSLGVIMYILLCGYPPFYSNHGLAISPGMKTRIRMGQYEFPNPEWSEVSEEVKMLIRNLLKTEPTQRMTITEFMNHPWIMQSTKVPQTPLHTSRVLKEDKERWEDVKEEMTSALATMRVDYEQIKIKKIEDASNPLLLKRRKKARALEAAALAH
Protocol: The phosphorylation of HSP-peptide ([sequence]) by MAPKAPK2 was measured using an anion exchange resin capture assay method. […] The reaction was terminated and [γ^33P]ATP was removed from solution by the addition of 150 μl of AG 1×8 ion exchange resin in 900 mM sodium formate pH 3.0. A 50 μl aliquot of head volume was removed from the quenched reaction mixture and added to a 96-well plate, 150 μl of Microscint-40 (Packard) was added and the amount of phosphorylated-peptide was determined. Allow the Microscint to sit in the plates for 60 minutes prior to counting.
Compounds are evaluated as potential inhibitors of the MK2 kinase by measuring their effects on MK2 phosphorylation of the peptide substrate. Compounds may be screened initially at two concentrations prior to determination of IC50 values. Screening results are expressed as percent inhibition at the concentrations of compound tested. For IC50 value determinations, compounds are tested at six concentrations in ten-fold serial dilutions with each concentration tested in triplicate. Results are expressed as IC50 values in micromolar. The assay is performed at a final concentration of 2% DMSO.
Compounds are evaluated as potential inhibitors of the MK-2 kinase by measuring their effects on MK-2 phosphorylation of the peptide substrate. Compounds may be screened initially at two concentrations prior to determination of IC50 values. Screening results are expressed as percent inhibition at the concentrations of compound tested. For IC50 value determinations, compounds are tested at six concentrations in ten-fold serial dilutions with each concentration tested in triplicate. Results are expressed as IC50 values in micromolar. The assay is performed at a final concentration of 2% DMSO.
Regarding `NCCn1nc(-c2ccnc(-c3ccc(CO)cc3)c2)cc1C(=O)NO` [Example 118, 1-(2-aminoethy)-N-hydroxy-3-{2-[4-(hydroxymethyl)phenyl]pyridin-4-yl}-1H-pyrazole-5-carboxamide trifluoroacetate], the IC50 came out at 7910 nM.

For `COc1ccc(-c2cc(-c3cc(C(=O)O)n(CCN)n3)ccn2)cc1` [Example 12, trifluoroacetate], the IC50 amounted to 168 nM. Take `O=C1NCCn2nc(-c3ccnc(-c4ccc5[nH]ncc5c4)c3)cc21` [Example 16]: the IC50 was determined as 199 nM. As to `O=C1NCCn2nc(-c3ccnc(-c4nc5ccccc5[nH]4)c3)cc21` [Example 120, 2-[2-(1H-benzimidazol-2-yl)pyndin-4-yl]-6,7-dihydropyrazolo[1,5-a]pyrazin-4(5H)-one], the IC50 was 8920 nM.

For the compound `O=C1NCCn2nc(-c3ccnc(-c4ccccn4)c3)cc21` [Example 111, 2-(2,2′-bipyridin-4-yl)-6,7-dihydropyrazolo[1,5-a]pyrazin-4(5H)-one], the IC50 was found to be 5340 nM. Then `O=C1NC(CO)Cn2nc(-c3ccnc(-c4cnc5ccccc5c4)c3)cc21` (stereo not drawn) [Example 6], with 61.5 nM. Take `NCC1Cn2nc(-c3ccnc(-c4cnc5ccccc5c4)c3)cc2C(=O)N1` (stereo not drawn) [Example 3, trifluoroacetate]: the IC50 is 47.7 nM. In the case of `NCCn1nc(-c2ccncc2)cc1C(=O)O` [Example 45, trifluoroacetate], the concentration for half-maximal inhibition (IC50) turned out to be 735 nM. Then `NCCn1nc(-c2ccnc(-c3cnc4ccccc4c3)c2)cc1C(=O)O` [Example 1, dihydrochloride], with 26.9 nM; and `O=C1NCCn2nc(-c3ccnc(-c4ccc5sccc5c4)c3)cc21` [Example 56, trifluoroacetate], with 965 nM; and `O=C1NCCCn2nc(-c3ccnc(-c4ccc(OC(F)(F)F)cc4)c3)cc21` [Example 148, 2-{2-[4-(trifluoromethoxy)phenyl]pyridin-4-yl}-5,6,7,8-tetrahydro-4H-pyrazolo[1,5-a][1,4]diazepin-4-one], with 124000 nM. Then `NCCCn1nc(-c2ccc(O)cc2)cc1C(=O)O` [Example 119, 1-(3-aminopropyl)-3-(4-hydroxyphenyl)-1H-pyrazole-5-carboxylic acid dihydrochloride], with 8110 nM; and `CN(C)c1ccc(-c2cc(-c3cc(C(=O)O)n(CCN)n3)ccn2)cc1` [Example 10], with 117 nM. For `CCOC(=O)c1cc(-c2ccnc(-c3cccc(OC)c3)c2)nn1CCN` [Example 110, ethyl 1-(2-aminoethyl)-3-[2-(3-methoxyphenyl)pyridin-4-yl]-1H-pyrazole-5-carboxylate dihydrochloride], the IC50 came to 5230 nM. `O=C1NCCn2nc(-c3ccnc(-c4cccc(CNCCO)c4)c3)cc21` [Example 114, 2-[2-(3-{[(2-hydroxyethyl)amino]methyl}phenyl)pyridin-4-yl]-6,7-dihydropyrazolo[1,5-a]pyrazin-4(5H)-one]: the IC50 came out at 5780 nM. Then `CCOC(=O)c1cc(-c2ccnc(-c3cnc4ccccc4c3)c2)nn1CCCN` [Example 139, ethyl 1-(3-aminopropyl)-3-(2-quinolin-3-ylpyridin-4-yl)-1H-pyrazole-5-carboxylate dihydrochloride], with 38600 nM. For the compound `O=C1NCCn2nc(-c3ccnc(-c4ccc(Cl)s4)c3)cc21` [Example 29], the IC50 came to 444 nM. As to `O=C1NCCn2nc(-c3ccnc(-c4cccc(OCc5ccccc5)c4)c3)cc21` [Example 129, 2-{2-[3-(benzyloxy)phenyl]pyridin-4-yl}-6,7-dihydropyrazolo[1,5-a]pyrazin-4(5H)-one], the IC50 was determined as 15500 nM.

For the compound `O=C1NCCn2nc(-c3ccnc(-c4ccsc4)c3)cc21` [Example 75], the IC50 worked out at 1550 nM. As to `O=C1NCCCn2nc(-c3ccnc(-n4cccc4)c3)cc21` [Example 123, 2-[2-(1H-pyrrol-1-yl)pyridin-4-yl]-5,6,7,8-tetrahydro-4H-pyrazolo[1,5-a][1,4]diazepin-4-one trifluoroacetate], the concentration for half-maximal inhibition (IC50) was 10600 nM. Then `O=Cc1ccc(-c2cc(-c3cc4n(n3)CCNC4=O)ccn2)cc1` [Example 62, hydrochloride], with 1150 nM; and `O=C1NCCCn2nc(-c3ccnc(-n4cncn4)c3)cc21` [Example 135, 2-[2-(1H-1,2,4-triazol-1-yl)pyridin-4-yl]-5,6,7,8-tetrahydro-4H-pyrazolo[1,5-a][1,4]diazepin-4-one hydrochloride], with 28200 nM; and `O=C1NCCCn2nc(-c3ccnc(-c4ccc(CO)cc4)c3)cc21` [Example 79, 2-{2-[4-(hydroxymethyl)phenyl]pyridin-4-yl}-5,6,7,8-tetrahydro-4H-pyrazolo[1,5-a][1,4]diazepin-4-one], with 1750 nM. Then `O=C(O)c1cc(-c2ccnc(/C=C/c3ccccc3)c2)nn1CCCNCCc1ccc(Br)cc1` [Example 25, trifluoroacetate], with 315 nM. On to `O=C1NCCn2nc(-c3ccnc(-c4ccccc4F)c3)cc21` [Example 93], for which the IC50 stood at 2950 nM. As to `O=C1NCCn2nc(-c3ccnc(Cl)c3)cc21` [Example 140, 2-(2-chloropyridin-4-yl)-6,7-dihydropyrazolo[1,5-a]pyrazin-4(5H)-one], the IC50 came out at 44800 nM.

Consider `COc1ccc(-c2cc(-c3cc4n(n3)CCNC4=O)ccn2)cc1F` [Example 30], for which the IC50 came to 471 nM. On to `Cc1cnn(-c2cc(-c3cc4n(n3)CCCNC4=O)ccn2)c1` [Example 142, 2-[2-(4-methyl-1H-pyrazol-1-yl)pyridin-4-yl]-5,6,7,8-tetrahydro-4H-pyrazolo[1,5-a][1,4]diazepin-4-one trifluoroacetate], for which the concentration for half-maximal inhibition (IC50) was found to be 53400 nM. Then `CN(C)c1ccc(-c2cc(-c3cc4n(n3)CCCNC4=O)ccn2)cc1` [Example 100, 2-{2-[4-(dimethylamino)phenyl]pyridin-4-yl}-5,6,7,8-tetrahydro-4H-pyrazolo[1,5-a][1,4]diazepin-4-one trifluoroacetate], with 3440 nM; and `O=C1NCCn2nc(-c3ccnc(-c4cccnc4)c3)cc21` [Example 41, dihydrochloride], with 586 nM; and `Cc1cc2cc(-c3cc(-c4cc5n(n4)CCNC5=O)ccn3)ccc2[nH]1` [Example 92], with 2830 nM.

Regarding `CN(C)Cc1cccc(-c2cc(-c3cc4n(n3)CCNC4=O)ccn2)c1` [Example 128, 2-(2-{3-[(dimethylamino)methyl]phenyl}pyridin-4-yl)-6,7-dihydropyrazolo[1,5-a]pyrazin-4(5H)-one trifluoroacetate], the IC50 is 15400 nM. For `O=C1NCCCn2nc(-c3ccnc(Cl)c3)cc21` [Example 145, 2-(2-chloropyridin-4-yl)-5,6,7,8-tetrahydro-4H-pyrazolo[1,5-a][1,4]diazepin-4-one] the value was 80400 nM; for `Cc1cn(-c2cc(-c3cc4n(n3)CCCNC4=O)ccn2)cn1` [Example 90], 2760 nM; for `O=C1NCCCn2nc(-c3ccc(O)cc3)cc21` [Example 147, 2-(4-hydroxyphenyl)-5,6,7,8-tetrahydro-4H-pyrazolo[1,5-a][1,4]diazepin-4-one], 118000 nM. On to `CC(=O)Nc1cccc(-c2cc(-c3cc4n(n3)CCNC4=O)ccn2)c1` [Example 99, N-{3-[4-(4-oxo-4,5,6,7-tetrahydropyrazolo[1,5-a]pyrazin-2-yl)pyridin-2-yl]phenyl}acetamide], for which the IC50 turned out to be 3310 nM. Then `O=C1NCCn2nc(-c3ccnc(-c4ccc(F)cc4F)c3)cc21` [Example 89, dihydrochloride], with 2620 nM. Then `O=C1NCCn2nc(-c3ccnc(-c4ccc[nH]4)c3)cc21` [Example 91, dihydrochloride], with 2790 nM; and `O=C1NCCn2nc(-c3ccnc(-c4cccc(CN5CCOCC5)c4)c3)cc21` [Example 125, 2-{2-[3-(morpholin-4-ylmethyl)phenyl]pyridin-4-yl]-6,7-dihydropyrazolo[1,5-a]pyrazin-4(5H)-one], with 11400 nM; and `O=C1NCCn2nc(-c3ccnc(-c4ccco4)c3)cc21` [Example 65], with 1200 nM. For `CS(=O)(=O)c1ccc(-c2cc(-c3cc4n(n3)CCNC4=O)ccn2)cc1` [Example 48, dihydrochloride] the value was 821 nM; for `O=C1NCCCn2nc(-c3ccncc3)cc21` [Example 122, 2-pyridin-4-yl-5,6,7,8-tetrahydro-4H-pyrazolo[1,5-a][1,4]diazepin-4-one], 10100 nM. For `CN(C)CCOc1ccc(-c2cc(-c3cc4n(n3)CCNC4=O)ccn2)cc1` [Example 46, trifluoroacetate], the IC50 came to 766 nM. For `Cn1ccc2cc(-c3cc(-c4cc5n(n4)CCNC5=O)ccn3)ccc21` [Example 32] the value was 479 nM; for `O=C1NCCCn2nc(-c3ccnc(-n4cccn4)c3)cc21` [Example 130, 2-[2-(1H-pyrazol-1-yl)pyridin-4-yl]-5,6,7,8-tetrahydro-4H-pyrazolo[1,5-a][1,4]diazepin-4-one hydrochloride], 16200 nM; for `O=C1NCCCn2nc(-c3ccnc(-n4cnc(-c5ccccc5)c4)c3)cc21` [Example 105, 2-[2-(4-phenyl-1H-imidazol-1-yl)pyridin-4-yl]-5,6,7,8-tetrahydro-4H-pyrazolo[1,5-a][1,4]diazepin-4-one trifluoroacetate], 4310 nM. For the compound `N#Cc1cc(-c2cc3n(n2)CCNC3=O)ccn1` [Example 126, 4-(4-oxo-4,5,6,7-tetrahydropyrazolo[1,5-a]pyrazin-2-yl)pyridine-2-carbonitrile], the IC50 amounted to 13800 nM.

With `O=C1NCCn2nc(-c3ccnc(-c4cccc(OCCN5CCCC5)c4)c3)cc21` [Example 98, 2-{2-[3-(2-pyrrolidin-1-ylethoxy)phenyl]pyridin-4-yl}-6,7-dihydropyrazolo[1,5-a]pyrazin-4(5H)-one], the IC50 worked out at 3270 nM. As for `NCCCn1nc(-c2ccnc(-c3cccc([N+](=O)[O-])c3)c2)cc1C(N)=O` [Example 69], the IC50 was 1320 nM. Then `COc1cccc(-c2cc(-c3cc(C(=O)O)n(CCN)n3)ccn2)c1` [Example 20, dihydrochloride], with 217 nM; and `O=C1NCCn2nc(-c3ccnc(-c4cnc5ccccc5c4)c3)cc21` [Example 19, dihydrochloride], with 216 nM.
